This passage reports % of control results from ChEMBL document CHEMBL5465560, “Selectivity Literature for EUbOPEN Chemogenomic Library” (2024).

Test [1] concerns the target Serine/threonine-protein kinase SIK1 (Homo sapiens) (UniProt P57059). Kind of test: Selectivity interaction (KinomeScan (DiscoverX)) EUB0001619a SIK1. Conditions: at 1 µM.
Test [2] addresses Mitogen-activated protein kinase 11 (Homo sapiens) (UniProt Q15759). Conditions: at 10 µM.
Test [3] addresses T1, Ankyrin repeat and protein kinase domain-containing protein 1 (Homo sapiens) (UniProt Q8NFD2).
T1 sequence (whole entry): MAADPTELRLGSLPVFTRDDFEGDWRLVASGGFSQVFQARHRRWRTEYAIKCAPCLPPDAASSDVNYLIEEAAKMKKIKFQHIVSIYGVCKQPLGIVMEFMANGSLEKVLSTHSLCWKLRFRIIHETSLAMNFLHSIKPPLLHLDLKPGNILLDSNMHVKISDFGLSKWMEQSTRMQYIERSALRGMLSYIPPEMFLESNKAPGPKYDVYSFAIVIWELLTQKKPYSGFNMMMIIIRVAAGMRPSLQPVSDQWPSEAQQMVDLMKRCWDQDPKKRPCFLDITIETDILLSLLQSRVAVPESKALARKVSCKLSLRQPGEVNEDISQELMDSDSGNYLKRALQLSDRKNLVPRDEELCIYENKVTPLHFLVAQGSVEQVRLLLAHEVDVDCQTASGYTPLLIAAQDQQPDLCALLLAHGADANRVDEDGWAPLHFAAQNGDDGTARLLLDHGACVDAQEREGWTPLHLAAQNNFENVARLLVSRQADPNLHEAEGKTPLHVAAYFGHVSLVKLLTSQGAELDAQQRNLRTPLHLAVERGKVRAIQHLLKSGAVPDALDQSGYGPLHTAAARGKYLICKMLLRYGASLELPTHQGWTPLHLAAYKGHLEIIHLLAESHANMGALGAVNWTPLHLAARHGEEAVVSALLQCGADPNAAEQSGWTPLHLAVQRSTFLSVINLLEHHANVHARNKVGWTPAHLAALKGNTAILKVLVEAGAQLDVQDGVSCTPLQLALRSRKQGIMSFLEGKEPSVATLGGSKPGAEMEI
Briefly: Selectivity interaction (Ambit KINOMEscan and KiNATiv profiling in Jurkat cells) EUB0000090b ANKK1. The test is classed as cell-based. Conditions: at 1 µM.

For test [4], the target named is T2, Dual specificity tyrosine-phosphorylation-regulated kinase 2 (Homo sapiens) (UniProt Q92630).
T2 sequence (whole entry): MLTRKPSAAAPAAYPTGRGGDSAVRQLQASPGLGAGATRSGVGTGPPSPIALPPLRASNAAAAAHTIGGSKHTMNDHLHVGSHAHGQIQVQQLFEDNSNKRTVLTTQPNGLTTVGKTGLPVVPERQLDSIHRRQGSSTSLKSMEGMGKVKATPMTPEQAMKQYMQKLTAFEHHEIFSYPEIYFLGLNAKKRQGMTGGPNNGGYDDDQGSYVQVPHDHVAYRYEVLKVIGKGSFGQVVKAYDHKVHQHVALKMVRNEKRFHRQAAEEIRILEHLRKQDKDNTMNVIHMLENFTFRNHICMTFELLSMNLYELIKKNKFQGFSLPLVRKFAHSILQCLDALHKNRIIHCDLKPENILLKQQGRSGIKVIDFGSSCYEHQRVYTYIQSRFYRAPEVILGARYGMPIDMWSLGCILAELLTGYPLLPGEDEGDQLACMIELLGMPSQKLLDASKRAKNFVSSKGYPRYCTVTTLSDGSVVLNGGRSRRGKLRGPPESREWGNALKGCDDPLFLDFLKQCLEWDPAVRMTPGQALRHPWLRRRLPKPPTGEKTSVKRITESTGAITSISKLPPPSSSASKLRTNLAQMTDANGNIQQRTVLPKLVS
Briefly: Selectivity interaction (KinomeScan (DiscoverX)) EUB0001049a DYRK2. Conditions: at 1 µM.

In test [5] the target is T3, Ephrin type-B receptor 3 (Homo sapiens) (UniProt P54753).
T3 sequence (whole entry): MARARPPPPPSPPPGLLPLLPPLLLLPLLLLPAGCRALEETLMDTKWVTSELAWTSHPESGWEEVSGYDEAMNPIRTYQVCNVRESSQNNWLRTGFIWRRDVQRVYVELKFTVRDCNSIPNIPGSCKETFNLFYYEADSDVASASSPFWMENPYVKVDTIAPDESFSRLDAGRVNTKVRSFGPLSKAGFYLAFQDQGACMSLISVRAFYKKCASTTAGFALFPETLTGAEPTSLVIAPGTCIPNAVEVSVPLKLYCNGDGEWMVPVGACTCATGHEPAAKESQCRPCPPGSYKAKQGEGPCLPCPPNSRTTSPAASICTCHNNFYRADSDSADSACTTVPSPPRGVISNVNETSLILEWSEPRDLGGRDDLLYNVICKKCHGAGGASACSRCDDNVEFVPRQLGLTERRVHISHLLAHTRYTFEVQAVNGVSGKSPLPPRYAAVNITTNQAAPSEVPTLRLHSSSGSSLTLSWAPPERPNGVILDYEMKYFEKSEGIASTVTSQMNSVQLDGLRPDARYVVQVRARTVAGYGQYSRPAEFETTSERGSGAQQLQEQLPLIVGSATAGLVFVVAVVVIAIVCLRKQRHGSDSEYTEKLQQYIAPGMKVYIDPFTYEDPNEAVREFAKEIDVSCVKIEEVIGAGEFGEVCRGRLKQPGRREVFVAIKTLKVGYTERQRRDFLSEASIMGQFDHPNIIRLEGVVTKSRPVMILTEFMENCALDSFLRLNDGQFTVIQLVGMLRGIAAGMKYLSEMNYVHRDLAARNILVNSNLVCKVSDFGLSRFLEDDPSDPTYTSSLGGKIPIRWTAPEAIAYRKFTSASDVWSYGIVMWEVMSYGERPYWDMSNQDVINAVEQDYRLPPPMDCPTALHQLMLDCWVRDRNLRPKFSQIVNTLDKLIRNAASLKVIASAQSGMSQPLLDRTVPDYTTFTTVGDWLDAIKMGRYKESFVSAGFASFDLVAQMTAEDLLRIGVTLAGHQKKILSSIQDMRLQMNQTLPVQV
Kind of test: Selectivity interaction (KinomeScan (DiscoverX)) EUB0001079a EPHB3. Conditions: at 1 µM.

Sequence of Mitogen-activated protein kinase 11 (Homo sapiens) (Q15759 whole entry, the tested form may be a part): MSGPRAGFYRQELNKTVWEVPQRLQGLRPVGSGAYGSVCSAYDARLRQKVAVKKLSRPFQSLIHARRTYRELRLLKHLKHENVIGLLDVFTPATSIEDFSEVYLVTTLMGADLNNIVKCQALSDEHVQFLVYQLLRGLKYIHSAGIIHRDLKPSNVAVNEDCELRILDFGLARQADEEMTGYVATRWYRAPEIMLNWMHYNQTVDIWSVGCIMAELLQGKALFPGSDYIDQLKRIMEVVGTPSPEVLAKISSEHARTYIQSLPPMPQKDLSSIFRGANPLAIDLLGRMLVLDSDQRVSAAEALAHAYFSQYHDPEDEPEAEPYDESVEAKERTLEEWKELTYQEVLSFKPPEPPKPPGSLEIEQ
Sequence of Serine/threonine-protein kinase SIK1 (Homo sapiens) (P57059 whole entry): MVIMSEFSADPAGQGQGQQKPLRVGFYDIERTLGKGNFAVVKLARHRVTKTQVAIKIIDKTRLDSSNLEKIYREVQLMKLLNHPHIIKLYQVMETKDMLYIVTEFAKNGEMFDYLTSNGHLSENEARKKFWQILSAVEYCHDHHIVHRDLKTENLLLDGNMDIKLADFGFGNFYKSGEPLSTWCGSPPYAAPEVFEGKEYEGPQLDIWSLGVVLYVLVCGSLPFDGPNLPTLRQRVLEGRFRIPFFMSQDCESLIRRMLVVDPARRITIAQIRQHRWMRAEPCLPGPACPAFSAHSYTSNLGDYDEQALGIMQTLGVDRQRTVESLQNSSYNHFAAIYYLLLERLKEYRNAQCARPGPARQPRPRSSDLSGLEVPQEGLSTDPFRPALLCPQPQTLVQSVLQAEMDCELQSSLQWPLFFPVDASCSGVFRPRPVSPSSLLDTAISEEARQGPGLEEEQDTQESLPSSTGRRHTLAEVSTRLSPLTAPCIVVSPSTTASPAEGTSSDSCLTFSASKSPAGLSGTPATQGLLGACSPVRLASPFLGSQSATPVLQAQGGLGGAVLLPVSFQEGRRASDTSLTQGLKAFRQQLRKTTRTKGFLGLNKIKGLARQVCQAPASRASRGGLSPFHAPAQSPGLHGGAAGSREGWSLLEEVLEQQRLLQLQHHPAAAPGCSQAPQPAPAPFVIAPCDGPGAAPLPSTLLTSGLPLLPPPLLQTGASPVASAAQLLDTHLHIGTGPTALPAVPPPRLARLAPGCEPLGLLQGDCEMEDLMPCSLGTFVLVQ

In the case of `N#Cc1cccc(-c2c[nH]c3ncnc(N4CCOCC4)c23)c1`, the % of control in test [1] came out at 84%.
In test [2], `Cc1cc([C@@H](C)Nc2ccccc2C(=O)O)c2nc(N3CCOCC3)cc(=O)n2c1` [AZD-6482] came in with a % of control of 91%.
In test [3], `CN(C)C/C=C/C(=O)Nc1ccc(C(=O)N2CCCC(Nc3ncc(Cl)c(-c4c[nH]c5ccccc45)n3)C2)cc1` (stereo not given) gave a % of control of 91%.
As to `COc1cc(Nc2nc(C)cc(-c3cnn4nc(OC)ccc34)n2)cc(C(F)(F)F)c1`, the % of control in test [4] is 79%.
`Nc1cnc(N2CCc3cc(S(=O)(=O)Nc4c(F)cc(Cl)cc4F)cc(N4CCCC4=O)c32)nc1` [TP-020n] displayed a % of control in test [5] of 100%.
